# According to US20070155757A1, “Use of pyrimidine compounds in the preparation of parasiticides” (priority 2004, published 2007):
row,melting point [°C],SMILES
1,110 to 112,"Nc1c(Oc2cccc(F)c2)ncnc1Oc1cccc(F)c1 [Compound 1.4, 4,6-bis-(3-fluorophenoxy)-pyrimidin-5-ylamine]"
2,155 to 156,"Cc1cc(Oc2ncnc(Oc3ccc(F)c(C)c3)c2N)ccc1F [Compound 1.20, 4,6-bis-(4-fluoro-3-methylphenoxy)-pyrimidin-5-ylamine]"
3,122 to 124,"NC(=O)Cc1c(Oc2ccc(F)c(C(F)(F)F)c2)ncnc1Oc1ccc(F)c(C(F)(F)F)c1 [Compound 1.29, [4,6-bis-(4-fluoro-3-(trifluoromethyl)phenoxy)]-pyrimidin-5-yl-acetamide]"
